This assay relates to interleukin (IL)-6. The experiment in a line: Human immune cell line THP-1 in vitro assay: IL-6 by ELISA after LPS co-treatment. The assay is classed as cell-based. As to conditions: PMA-differentiated THP1-XBlue cells co-treated with E. coli LPS and composition for 24 hours; supernatant ELISA; percentage to LPS-treated cells (=100%); three repeats. As to the method:
Human Immune Cell Line THP-1 In Vitro Assay The following procedure was used to determine the anti-inflammation efficacy: THP1-XBlue™ (Cat No.: thpx-sp, InvivoGen, San Diego, CA) cells were cultured as suspense in RPMI 1640 medium supplemented with 10% fetal bovine serum (FBS), penicillin (10 U/mL)-streptomycin (10 μg/mL) (Gibco, Invitrogen, Carlsbad, CA). Cells were differentiated in 24-well plates at the density of 5×10^5 cells/well with 100 nM phorbol-12-myristate-13-acetate (PMA) for 72 hours. Cells were then co-treated with pure E. coli lipopolysaccharides (LPS) and various compositions in Table 1. […] Expression of IL-6 was calculated as the percentage to LPS-treated cells which was designated as 100%. P value was analysed by Student's t-test comparing combination groups and individual compound groups (expression of IL-6, three repeats for each group).

From patent US20240050358A1, “PERSONAL CARE COMPOSITION” (Conopco, Inc., d/b/a UNILEVER, priority 2020, published 2024) come the findings set out here.

As to `CCCCCCC(O)CCCCCCCCCCC(=O)O` (stereo not shown) [B, 12-hydroxystearic acid], the “Expression of IL-6 (%)” value came out at 91.9%.
